Source: US9801922B2, “Compositions and methods of treating cancer” (UNIVERSITY OF IOWA RESEARCH FOUNDATION, priority 2011, dated 2017)
Where “and” joins values, the source holds several entries; their conditions need not be identical. Equal entries are not always repeated.

What was measured:
[1] = tested on: SUM159 human breast cancer cells; experiment: Clonogenic cell survival, SUM159; assay type: cell-based; details: for cytotoxicity (clonogenic survival), in words: 500 nM AUR 15 min
Protocol: (§1) FIGS. 1A-D: BSO, DTPP and AUR treated SUM159, MDA-MB231 and HMEC Clonogenic survival. In Panel A (SUM 159), B (MDA-MB231) and C(HMEC), 150,000 cells/dish SUM159 or MDA-MB231 and 300,000 cells/dish were plated in 60 mm tissue culture dishes. After 48 hours, cells were given fresh complete HMECs media and treated with 100 μM BSO+/1 μM DTPP for 24 hours. 500 nM AUR were added 15 mins before the trypsinization of cells for clonogenic survival assay. In panel A-C, The error bars represent mean±1 SD of n=1 treatment dishes done in 3 separate experiments where each treatment dish was used to prepare 6-10 replicate cloning dishes for analysis. *p<0.001 as compared to Control. […] Mice growing Sum159 xenograft tumors were treated with 100 μM DTPP in drinking water for 2 weeks followed by i.p. injections of BSO 675 mg/kg followed in 2 hrs with Au 2.7 mg/kg. The day following injections tumors were harvested, digested and stained for ALDH positive cells. Each bar represents an average of at least three tumors. Error bars are SEM. *p<0.05 vs. control.
FIG. 2: BSO and AUR treated SUM159 dose response Clonogenic survival. 150,000 cells/dish SUM159 were plated in 60 mm tissue culture dishes. After 48 hours, cells were given fresh complete HMECs media and treated with 100 μM BSO 24 hours. 500 nM AUR were added 15 mins, 30 mins, 45 mins, 1 hr, 1.5 hrs and 3 hrs before the trypsinization. Cells were then collected and plated for clonogenic survival. In panel A-C, The error bars represent mean±1 SD of n=1 treatment dishes done in 3 separate experiments where each treatment dish was used to prepare 6-10 replicate cloning dishes for analysis. *p<0.001 as compared to SUM159 Control. ^p<0.001 as compared to HMEC Control.
(§2) FIGS. 3A-3B: Clonogenic survival of SUM159 and MDA-MB231 cells treated with BSO, DTPP and AUR in the presence of 20 mM NAC. Asynchronously growing cultures of SUM159 (panel A) and MDA-MB231 (panel B) were plated as described in FIG. 1. After 48 hours, cells were given fresh complete HMECs media and treated with 100 μM BSO+/1 μM DTPP in the presence or absence of 20 mM NAC for 24 hours. 500 nM AUR were added 15 mins before the trypsinization. cells were then collected and plated for clonogenic survival. In panel A, B, The error bars represent mean±1SD of n=1 treatment dishes done in 3 separate experiments where each treatment dish was used to prepare 6-10 replicate cloning dishes for analysis. *p<0.001 as compared to W/O NAC Control. ^p<0.001 as compared to W/NAC Control.
FIG. 6: BSO, DTPP and AUR treated SUM159 in the presence of 100 U/ml PEGSOD+/PEGCAT Clonogenic survival. Asynchronously growing cultures of SUM159 were plated as described in FIG. 1. After 48 hours, cells were given fresh complete HMECs media and treated with 100 μM BSO+/1 μM DTPP in the presence or absence of PEGSOD+/PEGCAT (100 U/mL each) for 24 hours. Control received PEG alone (18 μM) for 24 hours. 500 nM AUR were added 15 mins before the trypsinization. Cells were then collected and plated for clonogenic survival. In panel A, B, The error bars represent mean±1 SD of n=1 treatment dishes done in 3 separate experiments where each treatment dish was used to prepare 6-10 replicate cloning dishes for analysis. *p<0.001 as compared to PEG alone Control. ^p<0.001 as compared to PEGCAT Control, $ p<0.001 as compared to PEGSOD+CAT Control.
Clonogenic cell survival: To determine whether the DTPP exposure alters the cell proliferation in MDA-MB231, SUM159 and HMECs, 150,000 cells/dish of MDA-MB231 and SUM159 cells, and 300,000 cells/dish HMECs were plated in 60 mm tissue culture dishes. After 48 hours, at 24 hours prior to each clonogenic survival experiment, media in all the dishes were changed to HMECs media and then treated with 100 μM BSO and 1 μM DTPP for 24 h. Cells were treated with AUR for 15 minutes prior to each clonogenic survival experiment. […]

[2] = tested on: MDA-MB231 human breast cancer cells; experiment: Clonogenic cell survival, MDA-MB231; assay type: cell-based; details: for clonogenic cell killing: 100 μM BSO, 1 μM DTPP 24 h, 500 nM AUR 15 min (FIG. 1B)
Protocol: as §1, §2
Clonogenic cell survival: To determine whether the DTPP exposure alters the cell proliferation in MDA-MB231, SUM159 and HMECs, 150,000 cells/dish of MDA-MB231 and SUM159 cells, and 300,000 cells/dish HMECs were plated in 60 mm tissue culture dishes. After 48 hours, at 24 hours prior to each clonogenic survival experiment, media in all the dishes were changed to HMECs media and then treated with 100 μM BSO and 1 μM DTPP for 24 h. Cells were treated with AUR for 15 minutes prior to each clonogenic survival experiment. Attached and floating cells in the experimental dishes were collected after trypsinization with 1× trypsin-EDTA (CellGro, Herndon, Va., USA), centrifuged, resuspended in fresh media, and counted using a Coulter counter. Cells were re-plated using appropriate dilutions in their own media and clones were allowed to grow for 14 days in their regular growth media in the presence of 0.1% gentamycin. Cells were then fixed with 70% ethanol and stained with Coomassie blue and colonies of more than 50 cells counted and utilized to calculate clonogenic survival as described (Puck, T. T.; Morkovin, D.; Marcus, P. I.; Cieciura, S. J. Action of x-rays on mammalian cells. II. Survival curves of cells from normal human tissues. J Exp Med 106:485-500; 1957; Spitz, D. R.; Malcolm, R. R.; Roberts, R. J. Cytotoxicity and metabolism of 4-hydroxy-2-nonenal and 2-nonenal in H2O2-resistant cell lines. Do aldehydic by-products of lipid peroxidation contribute to oxidative stress? Biochem J 267:453-459; 1990). […]

[3] = 1 μM DTPP with 20 mM NAC, 24 hrs
[4] = 100 μM BSO and/or 1 μM DTPP for 24 hours

Q: `CCCCS(=N)(=O)CCC(N)C(=O)O` [BSO, L-buthionine-[S,R]-sulfoximine, reference compound] was tested. Which “cytotoxicity (clonogenic survival), in words” value ([1]; 100 μM BSO, 1 μM DTPP 24 h) did it give?
A: Its value is “did not cause significantly cytotoxicity”.

Q: What about the “cytotoxicity (clonogenic survival), in words” value ([2]; 100 μM BSO 24 h) of the same molecule?
A: The value was “did not cause significantly cytotoxicity”.

Q: Which “survival fraction (of control cells) in the presence of NAC” value [1, 3] does the source give for `CCCCCCCCCC[P+](c1ccccc1)(c1ccccc1)c1ccccc1` [DTPP, Decyl-Triphenylphosphonium] here?
A: Its value is “at least 70%”.

Q: What about the “decrease in cell survival / survival fraction compared to control” value [1, 4] of the same molecule?
A: Its value is 70%-80%.

Q: And the clonogenic cell killing ([1]; 100 μM BSO, 1 μM DTPP 24 h, 500 nM AUR 15 min (FIG. 1A))?
A: The clonogenic cell killing was “at least 70%”.

Q: What about the “clonogenic survival without PEGSOD+PEGCAT” value ([1]; PEG alone control) of the same molecule?
A: The value was 35%.

Q: What about the “clonogenic survival with PEGSOD+PEGCAT” value ([1]; PEGSOD+PEGCAT 100 U/ml each) of the same molecule?
A: The value was 70%.

Q: And the “survival fraction (of control cells) in the presence of NAC” value [2, 3]?
A: The value was “at least 70%”.

Q: What about the “decrease in cell survival / survival fraction compared to control” value [2, 4] of the same molecule?
A: Its value is 70%-80%.

Q: What about the clonogenic cell killing [2] of the same molecule?
A: Its clonogenic cell killing is “at least 70%”.

Q: What does the source list for `CC[PH](CC)(CC)[Au][S][C@@H]1O[C@H](COC(C)=O)[C@@H](OC(C)=O)[C@H](OC(C)=O)[C@H]1OC(C)=O` [AUR, S-triethylphosphinegold(I)-2,3,4,6-tetra-O-acetyl-1-thio-β-D-glucopyranoside]?
A: cytotoxicity (clonogenic survival), in words ([1]; 100 μM BSO, 1 μM DTPP 24 h): did not cause any significant cytotoxicity; clonogenic cell killing [2]: 50%-55% and 50%
